Experimental data published in publication PMC6938345, “Inhibition of complement activation, myeloperoxidase, NET formation and oxidant activity by PIC1 peptide variants” (PLoS ONE, 2019).

Experiments:
[1] = target: T1, Myeloperoxidase (MPO) (Homo sapiens, UniProt P05164); assay: MPO activity assay (TMB-based); format: biochemical; conditions: range of concentrations
T1 construct: purchased Lee BioSolutions (Maryland Heights, MO)
T1 sequence (P05164 49-745): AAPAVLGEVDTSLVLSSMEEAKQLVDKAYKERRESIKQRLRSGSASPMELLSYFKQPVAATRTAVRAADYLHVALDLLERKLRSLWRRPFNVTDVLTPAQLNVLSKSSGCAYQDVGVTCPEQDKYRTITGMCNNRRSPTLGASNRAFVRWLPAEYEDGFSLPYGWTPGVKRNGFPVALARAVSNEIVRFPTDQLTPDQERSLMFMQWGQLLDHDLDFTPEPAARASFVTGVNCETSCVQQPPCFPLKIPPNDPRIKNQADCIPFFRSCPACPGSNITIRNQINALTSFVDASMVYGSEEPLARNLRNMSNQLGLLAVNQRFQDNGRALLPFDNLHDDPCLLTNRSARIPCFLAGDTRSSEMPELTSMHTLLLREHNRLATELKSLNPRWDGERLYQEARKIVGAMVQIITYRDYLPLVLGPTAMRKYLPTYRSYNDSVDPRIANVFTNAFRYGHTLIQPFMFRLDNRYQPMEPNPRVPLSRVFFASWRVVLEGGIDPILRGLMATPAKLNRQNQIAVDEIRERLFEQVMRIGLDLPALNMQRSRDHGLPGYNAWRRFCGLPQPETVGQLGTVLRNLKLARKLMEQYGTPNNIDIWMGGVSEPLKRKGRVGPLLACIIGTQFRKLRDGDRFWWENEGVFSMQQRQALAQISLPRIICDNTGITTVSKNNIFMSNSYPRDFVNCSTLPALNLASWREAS
Procedure: PIC1 and sarcosine variants were diluted to 25 mg/ml and then serially titrated in a 96 well plate at a volume of 0.02 ml. Myeloperoxidase (MPO) was diluted to 20 μg/ml and 0.02 ml was added to the titrated peptides. TMB (3,3′,5,5′-tetramethylbenzidine) (0.1 ml) was added to each well for 2 minutes, followed by 0.1 ml of 2.5 N H2SO4 for another 2 minutes, and then read on a 96 well plate reader (BioTek) at 450 nm.
In this assay, the variants were tested for MPO inhibition over a range of concentrations (Fig 2A). Strong MPO inhibition was found for all variants with the exception of the no-cysteine variant (C9,10).

[2] = tested on: purified human neutrophils; assay: NETosis assay, free DNA by PicoGreen; format: cell-based; conditions: Average of n = 3; peptide 2 mM
Procedure: NETosis assays with immune complexes were performed as previously described. Briefly, normal human serum was stimulated with ovalbumin-antiovalbumin immune complexes in GVBS^++ for 30 minutes at 37 °C. This mixture along with 0.05% H2O2 was then added to purified human neutrophils resuspended in RPMI with or without sarcosine variants (2 mM), allowing NETosis to occur. Quantitation of free DNA released from the neutrophils was performed using PicoGreen. Slides were stained with DAPI (Southern Biotech, Birmingham, AL) and the following antibodies, mouse anti-elastase (Invitrogen, Carlsbad, CA) was used with the secondary goat anti-mouse Alexa Fluor 568 (Novus Biologicals, Centennial, CO) and rabbit anti-histone H3 (Abcam, Cambridge MA) with goat anti-rabbit Alexa Fluor 488 (Novus Biologicals) to visualize formation of NETs which were imaged with fluorescence microscopy with an Olympus BX53 microscope.
In this assay purified human neutrophils are stimulated with normal human serum activated with ovalbumin-antiovalbumin immune complexes and hydrogen peroxide. Free DNA expressed from the neutrophils is then measured in a PicoGreen assay.
Fig 5 Sarcosine variant inhibition of NET formation. Fluorescence microscopy images of NET formation after neutrophil stimulation with immune complexes (IC) and hydrogen peroxide (H2O2) compared with neutrophil only control. Variant I8 inhibition of NET formation is shown in the third row. Histones are probed with anti-histone antibody (αhistone), neutrophil elastase is probed with anti-neutrophil elastase (αNE) and DNA is stained with DAPI. Representative images are shown. […] Purified human neutrophils were stimulated with 2% normal human sera pre-incubated with ovalbumin-antiovalbumin immune complexes, and 0.05% H2O2. Sarcosine peptides and PIC1 were added to the sera to a final concentration of 2 mM. Data are the means of n = 3 independent experiments + SEM.

[3] = target: T2, MPO heme ring (Homo sapiens, UniProt P05164); assay: MPO heme ring oxidative degradation; format: biochemical; conditions: peptides 3.0 mM, H2O2, absorbance 300-550 nm
T2 construct: purchased Lee BioSolutions (Maryland Heights, MO)
T2 sequence (P05164 49-745): T1 sequence (P05164 49-745)
Procedure: In a 96 well plate, 0.025 ml of 1.7 mg/ml MPO was combined with 0.00125 ml of 0.5% H2O2 and 3 mM PIC1 or sarcosine variant peptides in a total volume of 0.125 ml PBS and left to incubate at room temperature for 2 minutes. Using a 96 well plate reader, the wells were scanned for absorbance from 300–550 nm to generate curves reflecting the iron state in the MPO heme ring, as previously reported.
We then evaluated the ability of the variants to prevent degradation of the heme ring in the MPO molecule. […] This can be evaluated via spectrometric measurements of absorption of wavelengths from 300–550 nm. Absorption measurements were made over this spectrum for all variants (Fig 3A–3H). […] The heme ring preservation for these two variants was greater than that for the parent compound, PA-dPEG24.
Fig 3 Sarcosine variant protection of MPO heme ring from oxidative degradation. Absorbance spectra for the heme ring is shown in the absence of hydrogen peroxide (MPO) in red, in the presence of hydrogen peroxide (MPO+H2O2) in black, in the presence of peptide in blue, and in the presence of hydrogen peroxide and peptide together in green. […] B-H) Peptides A2 – C9,10 are denoted in the legends. Peptides were tested at a concentration of 3.0 mM.

CC[C@H](C)[C@H](N)C(=O)N[C@@H](C)C(=O)N[C@@H](CC(C)C)C(=O)N[C@H](C(=O)N[C@@H](CC(C)C)C(=O)N[C@@H](CCC(=O)O)C(=O)N1CCC[C@H]1C(=O)N(C)CC(=O)N[C@@H](CS)C(=O)N[C@@H](CS)C(=O)N[C@@H](CCC(N)=O)C(=O)N[C@@H](CCC(=O)O)C(=O)N[C@@H](CCCNC(=N)N)C(=O)N[C@@H](C)C(=O)N[C@@H](C)C(=O)O)[C@@H](C)CC [I8]
MPO inhibition (in words) [1]: greatest potency | PICO green - NETs, free DNA release [2]: 43 | protection of MPO heme ring from degradation (in words) [3]: near perfect preservation
